In patent EP4775570A1, “CYP11A1 INHIBITOR, PREPARATION METHOD THEREFOR AND USE THEREOF” (Shenzhen Zhongge Biological Technology Co., Ltd., priority 2023, dated 2025):

What was measured:
[1] = LC-MS detection of concentrations of tested compounds in mouse plasma, tumors and adrenal glands; format: in vivo; settings: compound + prednisone group vs ODM-208 + prednisone group of the VCaP model
Text: • Mouse tumors were homogenized using PBS in a 1:5 ratio (tumor weight (g): PBS volume (mL), w/v); • Mouse adrenal glands were homogenized using PBS in a 1:10 ratio (adrenal gland weight (g): PBS volume (mL), w/v); • Standard sample: testosterone (LGC, C17322500), progesterone (MCE, HY-N0437), adrenal ketone (MCE, HY-B1618), and standard solution of test substance.
Concentrations of tested compounds in mouse plasma, tumors and adrenal glands: The multiple reaction monitoring (MRM) method was used to detect the concentrations in mouse plasma, tumors and adrenal glands. Mass spectrum: AB Sciex Triple Quad 6500+, liquid chromatography: Shimadzu 40A, column: XBridge BEH C18 2.5 µm 2.1*50mm, ODM208 ion pair: 419.20/176.20, tested compounds ion pair: 429.20/200.20. Acetonitrile was used as precipitant, and propranolol diclofenac were used as the internal standard for sample pretreatment in plasma, tumor, and adrenal tissue. The linear ranges of the standard in plasma tissue was 0.5-1000 ng/mL, the linear ranges of the standard in tumor tissue was 3-6000 ng/mL, and the linear ranges of the standard in adrenal tissue was 5.5-11000 ng/mL.

hERG channels = target: T1, hERG channels (Homo sapiens, UniProt Q12809); assay: hERG testing, manual whole cell patch clamp; format: cell-based; settings: IC50, hERG tail current, room temperature (~25°C), 0.1-30 µM
T1 construct: host or cells: HEK293
Method: The cells used in this experiment were HEK293 cell lines transfected with hERG cDNA and stably expressing hERG channels (#60187, provided by BPS Bioscience Inc., P3-P23 generations were used in the experiment). The cells were cultured in a culture medium containing the following components: MEM medium, 10% (v/v) inactivated fetal bovine serum, 1 mM sodium pyruvate, 500µg/ml geneticin, 0.1mM non-essential amino acid, 100U/ml penicillin-streptomycin. HEK293 hERG cells were grown in petri dishes containing the aforementioned culture medium and cultured in an incubator at 37°C and 5% CO2, passaged approximately three times a week and maintained at a cell fusion rate between 40% and 80%. […]
The electrophysiological experiment was carried out using a manual patch clamp system (HEKA EPC-10 signal amplifier and digital conversion system, HEKA Electronics, Germany) to record the whole cell currents. […] Only when the hERG potassium current recorded in the previous step achieved stable state under continuous extracellular fluid perfusion within the recording chamber, could the compound to be tested be continuously perfused until the inhibitory effect of the compound on the hERG current reaches a stable state. […]

T1 sequence (Q12809 whole entry): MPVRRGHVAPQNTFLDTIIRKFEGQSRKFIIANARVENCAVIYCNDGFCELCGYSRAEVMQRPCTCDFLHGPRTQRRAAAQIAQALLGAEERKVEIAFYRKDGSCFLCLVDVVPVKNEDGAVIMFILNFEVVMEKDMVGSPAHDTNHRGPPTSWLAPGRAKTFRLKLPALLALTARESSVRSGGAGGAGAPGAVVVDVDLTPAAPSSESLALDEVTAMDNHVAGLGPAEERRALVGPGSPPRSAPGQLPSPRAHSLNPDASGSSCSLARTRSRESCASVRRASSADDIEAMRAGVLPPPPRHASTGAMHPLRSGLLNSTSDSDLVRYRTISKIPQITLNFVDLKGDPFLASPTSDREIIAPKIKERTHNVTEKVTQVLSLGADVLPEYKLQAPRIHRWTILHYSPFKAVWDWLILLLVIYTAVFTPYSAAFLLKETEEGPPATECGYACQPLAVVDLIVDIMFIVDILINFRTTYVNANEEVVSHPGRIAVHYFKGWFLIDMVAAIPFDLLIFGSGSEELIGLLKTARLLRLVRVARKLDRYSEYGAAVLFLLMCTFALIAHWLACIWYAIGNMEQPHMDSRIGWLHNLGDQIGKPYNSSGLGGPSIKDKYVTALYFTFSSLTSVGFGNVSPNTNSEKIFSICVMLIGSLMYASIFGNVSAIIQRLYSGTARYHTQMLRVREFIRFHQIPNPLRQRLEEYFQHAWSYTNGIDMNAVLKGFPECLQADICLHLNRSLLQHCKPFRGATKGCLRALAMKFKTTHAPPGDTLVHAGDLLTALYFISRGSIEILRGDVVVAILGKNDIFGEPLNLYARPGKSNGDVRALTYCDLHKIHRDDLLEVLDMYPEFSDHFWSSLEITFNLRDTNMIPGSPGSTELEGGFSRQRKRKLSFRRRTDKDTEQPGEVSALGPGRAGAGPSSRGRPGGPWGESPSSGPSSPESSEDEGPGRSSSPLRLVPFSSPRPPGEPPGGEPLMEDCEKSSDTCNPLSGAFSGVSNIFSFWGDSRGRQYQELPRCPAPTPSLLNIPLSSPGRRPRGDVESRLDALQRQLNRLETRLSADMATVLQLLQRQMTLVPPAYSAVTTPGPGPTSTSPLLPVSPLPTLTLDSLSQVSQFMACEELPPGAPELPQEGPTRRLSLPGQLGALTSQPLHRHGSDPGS

SMILES | drug concentration in adrenal glands relative to ODM-208 [1] [fold] | drug concentration in plasma relative to ODM-208 [1] [fold] | drug concentration in tumors relative to ODM-208 [1] [fold] | IC50 (hERG channels) [µM]
Cn1c(CN2Cc3ccccc3C2)c(F)cc(CCC2CCN(S(C)(=O)=O)CC2)c1=O [compound 72] | 3.3 | 1.6 | 3.6 | > 30
Cn1c(CN2Cc3ccccc3C2)c(F)cc(C=CC2CCN(C(=O)CC#N)CC2)c1=O [compound 112] |  |  |  | > 30
COc1cc(CN2Cc3ccccc3C2)ccc1CCC1CCN(S(C)(=O)=O)CC1 [compound 53] | 80 | 3 | 10 | 
